Results on 1 molecule are retold here after patent US12453726B2, “Methods of using factor B inhibitors” (priority 2020, dated 2025).

Structures can show the parent of a compound that is named as a salt.

In data set [1] the test system is PNH patients with active hemolysis despite treatment with eculizumab. Nature of the data set: Phase 2 study CLNP023X2201 interim analysis: LNP023 hydrochloride add-on to eculizumab in PNH patients with active hemolysis. It counts as in vivo, human. As to the method: (§1) The dose of 200 mg LNP023 hydrochloride b.i.d. as continuous treatment has been selected for this Phase 3 study primarily based on the available efficacy and safety data obtained at the time of interim analyses from the two ongoing Phase 2 PNH studies (ClinicalTrials.gov Identifier: NCT03439839 and NCT03896152) and is supported by PKPD modeling results.
In the CLNP023X2201 study in patients with active hemolysis despite treatment with eculizumab, LNP023 hydrochloride at a dose of 200 mg b.i.d. was administered to 10 PNH participants (cohort 1) and at a dose of 50 mg b.i.d. to 6 PNH participants (cohort 2). An interim analysis (IA) was conducted after 10 participants (cohort 1) completed at least 12 weeks of treatment with LNP023 hydrochloride 200 mg b.i.d. add-on treatment to eculizumab.
(§2) The hematological response participants achieved with LNP023 hydrochloride 200 mg b.i.d. add-on therapy was maintained with LNP023 hydrochloride monotherapy during the extension period (at the time of the IA) when eculizumab treatment was discontinued in 5/10 participants who continued with LNP023 hydrochloride monotherapy. Following the IA, two additional participants discontinued eculizumab treatment.

The subject of data set [2] is anti-C5 antibody treatment naive PNH patients. Nature of the data set: Phase 2 study interim analysis: LNP023 hydrochloride monotherapy in anti-C5 antibody treatment naive PNH patients. It counts as in vivo, human. As to the method: as §1
In the Phase 2 study (NCT03439839) in anti-C5 antibody treatment naive patients, participants received LNP023 hydrochloride monotherapy with sequential dose increments at Week 4 from LNP023 hydrochloride 25 mg b.i.d. to 100 mg b.i.d (sequence 1) or LNP023 hydrochloride 50 mg b.i.d. to 200 mg b.i.d. (sequence 2). An IA was conducted after 8 patients were randomized and 7 patients completed Week 8 visit assessments.
as §2

The subject of data set [3] is patients with IgA nephropathy. Nature of the data set: Study CLNP023X2203, safety and tolerability. It counts as in vivo, human. Particulars: 200 mg b.i.d.
In data set [4] the test system is patients with C3 glomerulopathy. Nature of the data set: Study CLNP023X2202, safety and tolerability. Type of data set: in vivo, human. Particulars: 200 mg b.i.d.
The next data set deals with alternative pathway. Put plainly: Exposure-response model from First In Human study data (Wieslab assay). As to conditions: dose of about 200 mg b.i.d., in >70% of subjects; model built on healthy volunteer data. On the procedure: The exposure-response model developed with data from the First In Human (FIH) study with LNP023 hydrochloride in healthy volunteers predicts that a dose of about 200 mg b.i.d. would be needed to achieve >90% inhibition of the alternative pathway (Wieslab assay) in >70% of subjects. Given the risk of hemolysis and breakthroughs in cases of insufficient inhibition of complement activity, full inhibition is desired and modelling results provide additional support for the choice of the dose of 200 mg b.i.d. for PNH.

The mark [5] stands for this setting: 200 mg b.i.d. added to eculizumab.
Setting [6] is: 200 mg b.i.d. as add-on to eculizumab, cohort 1, interim analysis.
Setting [7] is: 200 mg b.i.d., PNH participants.

On to `CCO[C@H]1CCN(Cc2c(OC)cc(C)c3[nH]ccc23)[C@H](c2ccc(C(=O)O)cc2)C1` [LNP023 hydrochloride, 4-((2S,4S)-(4-ethoxy-1-((5-methoxy-7-methyl-1H-indol-4-yl)methyl)piperidin-2-yl))benzoic acid hydrochloride], for which, in data set [1] (setting [5]), the C3 deposition entry is recorded as “fully reversed”; the “Fragment Bb (target engagement)” value was “profound and sustained reduction”; the “inhibition of the complement alternative pathway” value is listed as “sustained inhibition”; the “survival of PNH red blood cells” value was “prolonged”. In addition, in data set [1] (setting [6]), the “bilirubin (control of EVH)” value is reported as “reduction”, the “haptoglobin (control of EVH)” value was “increase”, the “hemoglobin in the absence of red blood cell transfusions” value is “normalization of hemoglobin in the majority of patients” and the “reticulocytes (control of EVH)” value is “reduction”. Further, the “control of IVH demonstrated by LDH” value in data set [1] (200 mg b.i.d. as add-on to eculizumab, cohort 1, interim analysis after at least 12 weeks) was “LDH reduction”. The “hematological response during the extension period after eculizumab was discontinued” value in data set [1] (200 mg b.i.d. monotherapy, 5/10 participants who discontinued eculizumab) is recorded as “maintained”. Further, the safety and tolerability entry in data set [1] (setting [7]) was “safe and well tolerated”. Besides, in data set [1] (cohort 2, 50 mg b.i.d., preliminary, three participants required up-titration to 200 mg b.i.d.), the “response at 50 mg b.i.d.” value is given as “suboptimal response”. For the same molecule, in data set [2] (setting [7]), the safety and tolerability entry was “safe and well tolerated”. Further, in data set [2] (monotherapy), the “bilirubin (extravascular hemolysis)” value was “decrease”, the “haptoglobin (extravascular hemolysis)” value is listed as “increase” and the “reticulocytes (extravascular hemolysis)” value is recorded as “decrease”. Moreover, the transfusion-free hemoglobin entry in data set [2] (monotherapy, dose levels ≥25 mg b.i.d.) is recorded as “early transfusion-free hemoglobin increase in the majority of participants”. Also, the “LDH reduction from baseline” value in data set [2] (monotherapy, dose levels ≥25 mg b.i.d., all participants) is “more than 60%”. Further, in data set [3], the safety and tolerability entry is “safe and well tolerated”. For the same molecule, the safety and tolerability entry in data set [4] is “safe and well tolerated”. Also, in the data set with alternative pathway, the “predicted inhibition of the alternative pathway (Wieslab assay)” value is listed as over 90%.
